The record followed here is US20250333407A1, “Compounds and Their Use for Treatment of Hemoglobinopathies” (Bristol-Myers Squibb Company, priority 2024, published 2025).

What all share (assay type): cell-based
One assay deals with T1, ZBTB7A (Homo sapiens, UniProt O95365+Q96SW2).
T1 construct: HUDEP-2 cells engineered to express a HiBiT tag in either the WIZ (Widely interspaced zinc finger) or ZBTB7A
The assay is described as follows: HUDEP-2 ZBTB7A HiBiT degradation assay. The note with it: HiBiT-tagged ZBTB7A degradation in HUDEP-2 cells, 24 hours of treatment; read-out: ZBTB7A EC50. The protocol: (§1) WIZ Assay and ZBTB7A EC50 Assays. The HiBiT degradation assays for WIZ and ZBTB7A in HUDEP-2 cells were performed as described below. HUDEP-2 cells engineered to express a HiBiT tag in either the WIZ (Widely interspaced zinc finger) or ZBTB7A (Zinc Finger And BTB Domain Containing 7A) proteins were maintained in low attachment flasks in StemSpan SFEM II media supplemented with Penicillin-Streptomycin (50 U/mL), rhSCF (50 ng/mL), rhEPO (3 IU/mL), dexamethasone (0.4 μg/mL) and doxycycline (1 μg/mL). Prior to start of the assay, cell count and viability were measured by trypan blue exclusion using the Vi-cell XR cell viability analyzer.
For the HUDEP-2 ZBTB7A HiBiT assay, cell count and viability were measured by trypan blue exclusion using the Vi-cell XR cell viability analyzer and the cells were transferred to a 50 mL conical and centrifuged at 500 g for five minutes. Cells were resuspended in fresh IMDM media supplemented with L-Glutamine (1×), Penicillin-Streptomycin (50 U/mL), holo-transferrin (330 μg/mL), heparin (2 IU/mL), r-human Insulin (10 μg/mL), rhEPO (3 IU/mL), rhSCF (100 ng/mL)+Dox (1 μg/mL) and 5% human plasma in low attachment flasks, which were placed in a 37° C. incubator with 5% CO2. After 48 hours, cell count and viability were measured by trypan blue exclusion using the Vi-cell XR cell viability analyzer. The HUDEP-2 ZBTB7A cells were transferred to a 50 mL conical, centrifuged at 500 g for five minutes and resuspended at a density of 1.0×10^6 cells/ml in IMDM media supplemented with L-Glutamine (1×), Penicillin-Streptomycin (50 U/mL), holo-transferrin (330 μg/mL), heparin (2 IU/mL), r-human Insulin (10 μg/mL), rhEPO (3 IU/mL), rhSCF (100 ng/mL)+Dox (1 μg/mL) and 5% human plasma. Forty microliters of cell suspension was dispensed into 384-well Low Flange White Flat Bottom Polystyrene TC-treated Microplates containing pre-dispensed compounds, using a VIAFLO 384 liquid hander, and placed in a 37° C. incubator with 5% CO2. […] After 24 hours of treatment, 40 μL Nano-Glo HiBiT Lytic Detection System reagent was dispensed into each well using a VIAFLO 384 liquid hander. Plates were incubated for 25 minutes at room temperature and the luminescence was read as relative luminescent units using the EnVision plate reader. EC50 and Y-min values were calculated using curves calculated from dotmatics software after the normalization to the DMSO control of 10 different concentrations: 10, 3.33, 1.11, 0.37, 0.12, 0.04 0.0137, 0.0046, 0.0015 and […] respectively.

A further assay addresses T2, WIZ (Homo sapiens, UniProt O95785+Q96SW2).
T2 construct: HUDEP-2 cells engineered to express a HiBiT tag in either the WIZ (Widely interspaced zinc finger) or ZBTB7A
As to the kind of experiment: HUDEP-2 WIZ HiBiT degradation assay. The note with it: HiBiT-tagged WIZ degradation in HUDEP-2 cells, 24 hours of treatment; read-out: WIZ EC50. How it is done:
as §1
For the HUDEP-2 WIZ HiBiT assay, cells were transferred to a 50 mL conical and centrifuged at 500 g for five minutes. Cells were resuspended in fresh StemSpan SFEM II media supplemented with Penicillin-Streptomycin (50 U/mL), rhSCF (50 ng/mL), rhEPO (3 IU/mL), dexamethasone (0.4 μg/mL) and doxycycline (1 μg/mL) at a density of 1.0×10^6 cells/ml. Forty microliters of cell suspension was dispensed into 384-well Low Flange White Flat Bottom Polystyrene TC-treated Microplates containing pre-dispensed compounds, using a VIAFLO 384 liquid hander, and placed in a 37° C. incubator with 5% CO2. […] After 24 hours of treatment, 40 μL Nano-Glo HiBiT Lytic Detection System reagent was dispensed into each well using a VIAFLO 384 liquid hander. Plates were incubated for 25 minutes at room temperature and the luminescence was read as relative luminescent units using the EnVision plate reader. EC50 and Y-min values were calculated using curves calculated from dotmatics software after the normalization to the DMSO control of 10 different concentrations: 10, 3.33, 1.11, 0.37, 0.12, 0.04 0.0137, 0.0046, 0.0015 and […] respectively.

For a further assay, the system named is HbF. The assay is described as follows: HbF HiBiT induction assay in HUDEP-2 cells. The note with it: HUDEP-2 cells with HiBiT tag in HBG1/2, 72 hours of treatment; area under the dose response curve, higher AUC = greater HbF induction. How it is done:
HbF HiBiT induction assay. The HiBiT induction assay for HbF in HUDEP-2 cells was performed as described below. HUDEP-2 cells engineered to express a HiBiT tag in HBG1/2 were maintained at a density of 0.1-1×10^6 cells/ml in StemSpan SFEM II supplemented with 1% penicillin/streptomycin, hSCF (50 ng/mL), erythropoietin (EPO; 3 IU/mL), dexamethasone (DEX; 0.4 μg/mL), and doxycycline hyclate (DOX; 1 μg/mL). The cells were cultured in low adherence flasks, in a humidified incubator, set at 37° C. with 5% CO2. Cell counts and viability were measured by trypan blue exclusion using the Vi-CELL XR cell viability analyzer and the cell growth was consistently maintained in log phase.
Prior to the start of experiments, HbF HiBiT-tagged HUDEP-2 cells were transferred to a 50 mL conical and centrifuged at 500×g for 5 minutes, the supernatant removed, and the pellet washed in 5 mL of 1×PBS. The washed cells were centrifuged again at 500×g for 5 minutes and resuspended in IMDM containing; 1×glutamine, 1×penicillin/streptomycin, holo-transferrin (330 μg/mL), heparin (2 IU/mL), r-human insulin (10 μg/mL), EPO (3 IU/mL), 5% human plasma, hSCF (100 ng/mL) and DOX (1 μg/mL) to a final density of 0.3×10^6 cells/mL. Forty microliters of cell suspension were dispensed into 384-well Low Flange White Flat Bottom Polystyrene TC-treated Microplates containing pre-dispensed compounds, using a VIAFLO 384 liquid hander, and placed in a humidified incubator at 37° C. with 5% CO2. […] After 72 hours of treatment, 40 μL of Nano-Glo HiBiT Lytic Solution (prepared according to manufacturer's instructions) were dispensed into each well using a VIAFLO 384 liquid handler, and the plates were shaken for 20 seconds. Plates were incubated for 20 minutes at room temperature, and the luminescence was read as relative luminescent units using an EnVision plate reader.
Dose response curves were generated, and EC50, Ymax, and then area under the curve (AUC) values were calculated. HbF induction was measured using the calculated area under the curve (AUC) value, with higher AUC values indicative of greater HbF induction relative to lower AUC values.

T2 sequence (O95785 whole entry): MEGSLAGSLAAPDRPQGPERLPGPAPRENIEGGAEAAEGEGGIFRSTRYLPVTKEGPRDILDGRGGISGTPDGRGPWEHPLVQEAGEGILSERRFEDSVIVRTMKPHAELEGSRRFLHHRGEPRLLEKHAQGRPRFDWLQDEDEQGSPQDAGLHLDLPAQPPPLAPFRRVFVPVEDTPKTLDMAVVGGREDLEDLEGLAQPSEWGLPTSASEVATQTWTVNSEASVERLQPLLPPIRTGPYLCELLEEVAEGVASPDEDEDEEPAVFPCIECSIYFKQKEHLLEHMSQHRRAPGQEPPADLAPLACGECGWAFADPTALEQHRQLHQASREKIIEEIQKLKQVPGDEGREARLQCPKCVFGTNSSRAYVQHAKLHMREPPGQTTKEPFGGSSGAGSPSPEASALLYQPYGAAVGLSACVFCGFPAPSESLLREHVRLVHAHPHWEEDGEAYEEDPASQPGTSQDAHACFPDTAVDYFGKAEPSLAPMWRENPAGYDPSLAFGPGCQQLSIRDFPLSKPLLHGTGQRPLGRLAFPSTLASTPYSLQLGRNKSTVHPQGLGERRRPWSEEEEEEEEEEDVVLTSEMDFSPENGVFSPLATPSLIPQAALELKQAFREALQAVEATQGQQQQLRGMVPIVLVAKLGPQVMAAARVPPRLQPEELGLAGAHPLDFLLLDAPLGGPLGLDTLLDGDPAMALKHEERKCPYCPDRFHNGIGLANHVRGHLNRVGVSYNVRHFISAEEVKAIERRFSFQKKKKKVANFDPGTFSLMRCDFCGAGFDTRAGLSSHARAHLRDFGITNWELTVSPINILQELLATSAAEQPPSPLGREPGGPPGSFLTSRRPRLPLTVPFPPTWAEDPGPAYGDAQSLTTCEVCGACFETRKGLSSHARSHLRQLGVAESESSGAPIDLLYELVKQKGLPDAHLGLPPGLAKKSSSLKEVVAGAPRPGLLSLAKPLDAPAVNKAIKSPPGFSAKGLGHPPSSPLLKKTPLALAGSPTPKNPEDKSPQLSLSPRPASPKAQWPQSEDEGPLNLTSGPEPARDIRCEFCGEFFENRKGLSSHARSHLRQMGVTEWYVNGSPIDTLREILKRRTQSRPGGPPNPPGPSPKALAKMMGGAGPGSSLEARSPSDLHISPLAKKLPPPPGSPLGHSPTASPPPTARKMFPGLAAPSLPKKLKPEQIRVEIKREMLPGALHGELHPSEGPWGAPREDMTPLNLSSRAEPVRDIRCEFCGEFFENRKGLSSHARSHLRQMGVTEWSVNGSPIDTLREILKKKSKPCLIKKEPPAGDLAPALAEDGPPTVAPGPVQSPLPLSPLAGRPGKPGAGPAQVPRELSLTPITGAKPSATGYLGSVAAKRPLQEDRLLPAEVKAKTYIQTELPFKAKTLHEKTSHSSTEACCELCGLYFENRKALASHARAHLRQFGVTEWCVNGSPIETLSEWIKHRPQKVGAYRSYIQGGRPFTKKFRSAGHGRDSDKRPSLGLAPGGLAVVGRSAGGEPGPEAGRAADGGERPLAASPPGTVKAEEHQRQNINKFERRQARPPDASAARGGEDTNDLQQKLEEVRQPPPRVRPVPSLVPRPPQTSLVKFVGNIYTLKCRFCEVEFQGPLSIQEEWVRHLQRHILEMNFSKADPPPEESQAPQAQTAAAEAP
T2 sequence (Q96SW2 whole entry): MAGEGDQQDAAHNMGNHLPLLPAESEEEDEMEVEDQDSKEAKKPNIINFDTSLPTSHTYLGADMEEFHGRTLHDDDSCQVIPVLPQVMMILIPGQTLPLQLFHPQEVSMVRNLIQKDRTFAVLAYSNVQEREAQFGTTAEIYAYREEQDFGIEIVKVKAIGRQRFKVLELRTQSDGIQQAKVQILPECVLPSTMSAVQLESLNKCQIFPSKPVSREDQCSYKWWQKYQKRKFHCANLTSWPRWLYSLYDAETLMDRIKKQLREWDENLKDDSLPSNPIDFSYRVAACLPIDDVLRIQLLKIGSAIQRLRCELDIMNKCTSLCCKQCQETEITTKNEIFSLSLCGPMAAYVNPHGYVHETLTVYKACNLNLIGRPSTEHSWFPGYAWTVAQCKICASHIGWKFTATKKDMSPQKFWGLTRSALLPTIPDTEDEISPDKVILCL
T2 sequence (Q16531 whole entry partner): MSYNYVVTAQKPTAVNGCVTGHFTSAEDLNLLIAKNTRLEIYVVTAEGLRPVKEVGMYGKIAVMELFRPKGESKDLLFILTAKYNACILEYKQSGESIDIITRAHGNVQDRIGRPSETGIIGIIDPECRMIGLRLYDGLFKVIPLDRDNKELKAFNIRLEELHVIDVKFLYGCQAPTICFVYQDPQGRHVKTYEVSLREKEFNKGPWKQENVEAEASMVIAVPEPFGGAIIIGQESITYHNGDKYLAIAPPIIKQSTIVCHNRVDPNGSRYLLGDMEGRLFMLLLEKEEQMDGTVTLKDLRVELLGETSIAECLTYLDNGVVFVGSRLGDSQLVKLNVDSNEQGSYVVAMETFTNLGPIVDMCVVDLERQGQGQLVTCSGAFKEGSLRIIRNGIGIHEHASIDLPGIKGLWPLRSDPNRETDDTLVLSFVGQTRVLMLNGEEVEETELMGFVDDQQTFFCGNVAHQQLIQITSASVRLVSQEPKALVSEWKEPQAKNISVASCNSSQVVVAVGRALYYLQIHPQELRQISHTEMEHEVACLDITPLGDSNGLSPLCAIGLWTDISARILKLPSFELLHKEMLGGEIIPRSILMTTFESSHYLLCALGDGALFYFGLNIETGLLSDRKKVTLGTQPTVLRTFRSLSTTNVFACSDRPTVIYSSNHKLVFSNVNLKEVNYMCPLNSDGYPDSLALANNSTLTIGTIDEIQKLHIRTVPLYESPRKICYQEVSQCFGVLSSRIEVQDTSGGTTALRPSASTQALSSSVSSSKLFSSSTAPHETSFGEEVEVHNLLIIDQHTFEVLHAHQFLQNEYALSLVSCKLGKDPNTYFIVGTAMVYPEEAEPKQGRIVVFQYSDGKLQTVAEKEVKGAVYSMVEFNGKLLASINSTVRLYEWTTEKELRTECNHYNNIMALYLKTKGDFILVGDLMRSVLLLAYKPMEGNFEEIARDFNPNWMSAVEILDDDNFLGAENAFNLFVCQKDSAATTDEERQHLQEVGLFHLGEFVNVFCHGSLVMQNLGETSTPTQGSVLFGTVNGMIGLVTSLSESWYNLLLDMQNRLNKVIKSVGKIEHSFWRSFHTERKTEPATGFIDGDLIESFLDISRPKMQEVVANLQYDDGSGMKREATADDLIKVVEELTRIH
T1 sequence (O95365 whole entry): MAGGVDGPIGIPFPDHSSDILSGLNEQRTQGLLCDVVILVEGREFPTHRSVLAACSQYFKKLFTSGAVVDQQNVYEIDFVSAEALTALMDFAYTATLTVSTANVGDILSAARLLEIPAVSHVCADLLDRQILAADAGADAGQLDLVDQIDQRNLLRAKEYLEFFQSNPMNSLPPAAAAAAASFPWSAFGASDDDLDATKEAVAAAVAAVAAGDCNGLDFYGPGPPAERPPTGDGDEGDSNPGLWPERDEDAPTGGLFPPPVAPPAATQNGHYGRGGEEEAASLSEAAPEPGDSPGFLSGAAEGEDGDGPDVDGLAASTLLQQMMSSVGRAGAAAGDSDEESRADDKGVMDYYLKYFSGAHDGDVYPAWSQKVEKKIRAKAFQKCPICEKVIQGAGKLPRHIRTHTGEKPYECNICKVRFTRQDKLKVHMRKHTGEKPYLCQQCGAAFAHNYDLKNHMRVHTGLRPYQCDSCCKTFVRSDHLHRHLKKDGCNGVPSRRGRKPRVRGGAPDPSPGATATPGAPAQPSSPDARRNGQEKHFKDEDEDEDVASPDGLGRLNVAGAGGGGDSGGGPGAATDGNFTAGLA
T1 sequence (Q96SW2 whole entry): as the sequence (Q96SW2 whole entry) above
T1 sequence (Q16531 whole entry partner): as the sequence (Q16531 whole entry partner) above

As for `Cc1cc(-c2cc3c(cc2Nc2cccc4c2C(=O)N(C2CCC(=O)NC2=O)C4=O)N(C)CCO3)ccn1` (centres unmarked) [Compound 1, 2-(2,6-dioxopiperidin-3-yl)-4-((4-methyl-7-(2-methylpyridin-4-yl)-3,4-dihydro-2H-benzo[b][1,4]oxazin-6-yl)amino)isoindoline-1,3-dione], the DC50 at ZBTB7A was 0.018 µM; at WIZ it was 0.021 µM. In addition, in the assay with HbF, the “HBF AUC” value is on record as “+ (+ = 15 ≤ AUC < 100)”.
On the same counts, the results for `Cc1cc(-c2cc3c(cc2Nc2cccc4c2C(=O)N(C2CCC(=O)NC2=O)C4=O)N(C)C(=O)CO3)ccn1` (centres unmarked) [Compound 2, 2-(2,6-dioxopiperidin-3-yl)-4-((4-methyl-7-(2-methylpyridin-4-yl)-3-oxo-3,4-dihydro-2H-benzo[b][1,4]oxazin-6-yl)amino)isoindoline-1,3-dione] are 0.011 µM, 0.006 µM and “+++ (+++ = AUC ≥ 150)”.
The matching figures for `Cc1cc(-c2cc3c(cc2Nc2cccc4c2C(=O)N([C@H]2CCC(=O)NC2=O)C4=O)N(C)[C@H](C)CO3)ccn1` [Compound 3, 4-(((R)-3,4-dimethyl-7-(2-methylpyridin-4-yl)-3,4-dihydro-2H-benzo[b][1,4]oxazin-6-yl)amino)-2-((S)-2,6-dioxopiperidin-3-yl)isoindoline-1,3-dione]: 0.029 µM, 0.017 µM and “+++ (+++ = AUC ≥ 150)”.
Regarding `Cc1cc(-c2cc3c(cc2Nc2cccc4c2C(=O)N([C@H]2CCC(=O)NC2=O)C4=O)N(C)[C@@H](C)CO3)ccn1` [Compound 4, 4-(((S)-3,4-dimethyl-7-(2-methylpyridin-4-yl)-3,4-dihydro-2H-benzo[b][1,4]oxazin-6-yl)amino)-2-((S)-2,6-dioxopiperidin-3-yl)isoindoline-1,3-dione], the DC50 at ZBTB7A is 0.026 µM; at WIZ, 0.083 µM. The “HBF AUC” value with HbF is given as “+++ (+++ = AUC ≥ 150)”.
On the same counts, the results for `Cc1cc(-c2cc3c(cc2Nc2cccc4c2C(=O)N([C@H]2CCC(=O)NC2=O)C4=O)N(C)C(=O)[C@H](C)O3)ccn1` [Compound 5, 4-(((S)-2,4-dimethyl-7-(2-methylpyridin-4-yl)-3-oxo-3,4-dihydro-2H-benzo[b][1,4]oxazin-6-yl)amino)-2-((S)-2,6-dioxopiperidin-3-yl)isoindoline-1,3-dione] are 0.019 µM, 0.015 µM and “+ (+ = 15 ≤ AUC < 100)”.
For the compound `Cc1cc(-c2cc3c(cc2Nc2cccc4c2C(=O)N([C@H]2CCC(=O)NC2=O)C4=O)N(C)C(=O)[C@@H](C)O3)ccn1` [Compound 6, 4-(((R)-2,4-dimethyl-7-(2-methylpyridin-4-yl)-3-oxo-3,4-dihydro-2H-benzo[b][1,4]oxazin-6-yl)amino)-2-((S)-2,6-dioxopiperidin-3-yl)isoindoline-1,3-dione], the DC50 stood at 0.049 µM on ZBTB7A and 0.009 µM at WIZ. In the assay with HbF, the “HBF AUC” value is reported as “+ (+ = 15 ≤ AUC < 100)”.
In the case of `Cc1cc(-c2cc3c(cc2Nc2cccc4c2C(=O)N([C@H]2CCC(=O)NC2=O)C4=O)N(C)C(=O)CO3)c(F)cn1` [Compound 7, (S)-2-(2,6-dioxopiperidin-3-yl)-4-((7-(5-fluoro-2-methylpyridin-4-yl)-4-methyl-3-oxo-3,4-dihydro-2H-benzo[b][1,4]oxazin-6-yl)amino)isoindoline-1,3-dione], the DC50 worked out at 0.009 µM at ZBTB7A and 0.007 µM at WIZ. Besides, the “HBF AUC” value with HbF is listed as “+++ (+++ = AUC ≥ 150)”.
On the same counts, the results for `Cc1cc(-c2cc3c(cc2Nc2cccc4c2C(=O)N([C@H]2CCC(=O)NC2=O)C4=O)N(C)C(=O)CO3)cc(C)n1` [Compound 8, (S)-4-((7-(2,6-dimethylpyridin-4-yl)-4-methyl-3-oxo-3,4-dihydro-2H-benzo[b][1,4]oxazin-6-yl)amino)-2-(2,6-dioxopiperidin-3-yl)isoindoline-1,3-dione] are 0.021 µM, 0.015 µM and “+++ (+++ = AUC ≥ 150)”.
The matching figures for `CN1C(=O)COc2cc(-c3ccnc(C(F)F)c3)c(Nc3cccc4c3C(=O)N([C@H]3CCC(=O)NC3=O)C4=O)cc21` [Compound 9, (S)-4-((7-(2-(difluoromethyl)pyridin-4-yl)-4-methyl-3-oxo-3,4-dihydro-2H-benzo[b][1,4]oxazin-6-yl)amino)-2-(2,6-dioxopiperidin-3-yl)isoindoline-1,3-dione]: 0.032 µM, 0.024 µM and “+ (+ = 15 ≤ AUC < 100)”.
On the same counts, the results for `Cc1cc(-c2cc3c(cc2Nc2cccc4c2C(=O)N([C@H]2CCC(=O)NC2=O)C4=O)N(C)C(=O)CO3)cc(N)n1` [Compound 10, (S)-4-((7-(2-amino-6-methylpyridin-4-yl)-4-methyl-3-oxo-3,4-dihydro-2H-benzo[b][1,4]oxazin-6-yl)amino)-2-(2,6-dioxopiperidin-3-yl)isoindoline-1,3-dione] are 0.02 µM, 0.012 µM and “++ (++ = 100 ≤ AUC < 150)”.
Consider `Cc1cc(-c2cc3c(cc2Nc2cccc4c2C(=O)N(C2CCC(=O)NC2=O)C4=O)N(C)C(=O)C(C)(C)C3)ccn1` (centres unmarked) [Compound 85, 2-(2,6-dioxopiperidin-3-yl)-4-((1,3,3-trimethyl-6-(2-methylpyridin-4-yl)-2-oxo-1,2,3,4-tetrahydroquinolin-7-yl)amino)isoindoline-1,3-dione], for which the DC50 at ZBTB7A was 0.043 µM; on WIZ it was 0.026 µM.
